Results reported in PMC12650660, “Novel Synthetic Strategies Towards Analogues of Cadaside and Malacidin Antibiotic Peptides” (Biomolecules, 2025).
Converted amounts (≈) assume the structure as drawn. “Also recorded” adds a separate entry of the source. Where two headings read alike, the source gives them in different places. Numbered stars: 1 amine (or outer) side, 2 acyl side, 3 side chain; on linkers, the order of the positions; unused ones are H or OH. Bridge positions count the residues as written; N and C are the ends. Square brackets hold non-standard residues; d marks the D form. Peptide text beside a SMILES is read from it. * marks the point of attachment. β2hAla(R) = C[C@H](CN[*:1])C(=O)[*:2]; Decanoyl = CCCCCCCCCC(=O)*; Dap = NC[C@H](N)C(=O)O; Sar = CNCC(=O)O

Columns and labels:
[1] = head-to-tail type lactamisation of side-chain-protected branched depsipeptide (Gly10 N-terminus of ester branch + C-terminal Pro9), HATU/DIPEA (pH ~10), microwave; conditions: the molecule shown is the open-chain precursor, DCM, 6.0 mM, 70.0 °C, 1.0 h
[2] = tested on: B. subtilis 168; type: cell-based
Protocol: MICs were measured in triplicate by microbroth dilution. An overnight culture of B. subtilis 168 (DSMZ German Collection of Microorganisms and Cell Cultures GmbH) was inoculated at 5 × 10^5 CFU/mL in cation-adjusted Mueller–Hinton broth (MHB II) with or without 15 mM or 100 mM CaCl2. Serial two-fold peptide dilutions (128 - 1 µg/mL for analogues and 16 - 0.25 µg/mL for daptomycin) were incubated in polypropylene U-bottom 96-well plates (200 µL final volume) at 37 °C for 24 h. MIC was the lowest concentration at which no growth was observed. Optical density measurements at 620 nm were performed using a Thermo Scientific Multiskan FC (Thermo Fisher Scientific Inc., Paisley, UK). MIC was determined from the lowest concentration at which no tubidity was observed, using an untreated positive growth control, and a broth-only sterility control as references.

[3] = TLC precursor-binding assay with lipid II; set-up: key to Lipid II (TLC binding): “+” indicates binding confirmed; “-” indicates no binding; “~” indicates potential binding with absence of precursor band; conditions: for Lipid II (TLC binding): peptide 0.5, 1, 2 equiv. (nisin 0.1, 0.5, 1 equiv.) with lipid II in Tris·HCl pH 7.5, 50 mM CaCl2, 1 h, silica TLC
Protocol: (§1) Lipid II and undecaprenyl phosphate (C55-P) (1 equiv., 30 µL) in Tris•HCl buffer (0.2% Triton X-100, 26 mM MgCl2, and 50 mM CaCl2 at pH 7.5) were incubated with the peptides (0.5, 1, 2 equiv.) or nisin (0.1, 0.5, 1 equiv.) in 30 µL water for 1 h. The reaction was then extracted with ^tBuOH/6 M PyOAc (2/1 v/v, 100 µL) and the organic phase was dried using an Eppendorf vacuum centrifuge 5301 (Fisher Scientific, Loughborough, UK) under reduced pressure. The solid was redissolved in CHCl3/MeOH (1/1 v/v, 30–60 µL) for spotting onto the TLC plates. In addition to the peptide–lipid mixtures, a control of each peptide/nisin with 30 µL buffer, and a control of each lipid with 30 µL HPLC-grade water were also incubated and subjected to the same workup. Silica TLC plates were run in a CHCl3/MeOH/H2O/NH3 (88/48/10/1 v/v) solvent system and stained using iodine vapour, phosphomolybdic acid (PMA), or KMnO4 stain, as well as visualisation at 254 nm and 365 nm.

[4] = TLC precursor-binding assay with C55-P; set-up: key to C55-P (TLC binding): “+” indicates binding confirmed; “-” indicates no binding; “~” indicates potential binding with absence of precursor band; conditions: for C55-P spot on TLC after incubation with peptide (in words): absence of C55-P spot = potential indicator of binding, KMnO4 staining in Figure S5; for C55-P (TLC binding): peptide 0.5, 1, 2 equiv. with C55-P in Tris·HCl pH 7.5, 50 mM CaCl2, 1 h, silica TLC
Protocol: as §1

Row | Lipid II (TLC binding) [3] | C55-P (TLC binding) [4] | Structure (SMILES) | ring closure, overall yield ([1]; 28-membered ring) [%] | further results
1 |  |  | CCCCCCCCCC(=O)NC[C@@H](C)C(=O)NCC(=O)N[C@H](CCC(=O)OC(C)(C)C)C(=O)N[C@@H](Cc1ccc(OC(C)(C)C)cc1)C(=O)N[C@H](C(=O)N[C@@H](C(=O)N[C@@H](CC(=O)OC(C)(C)C)C(=O)N[C@@H](CC(=O)OC(C)(C)C)C(=O)N1CCC[C@H]1C(=O)O)[C@H](C)CC)[C@@H](C)OC(=O)CN(C)C(=O)[C@H](CC(=O)OC(C)(C)C)NC(=O)[C@@H](CCC(=O)OC(C)(C)C)NC(=O)CN | 0.4 | 
2 |  |  | CCCCCCCCCC(=O)NC[C@@H](C)C(=O)NCC(=O)N[C@H](CCC(=O)OC(C)(C)C)C(=O)N[C@@H](Cc1ccc(OC(C)(C)C)cc1)C(=O)N[C@H](C(=O)N[C@@H](C(=O)N[C@@H](CC(=O)OC(C)(C)C)C(=O)N[C@@H](CC(=O)OC(C)(C)C)C(=O)N1CCC[C@H]1C(=O)O)[C@H](C)CC)[C@@H](C)OC(=O)CN(C)C(=O)[C@H](CC(=O)OC(C)(C)C)NC(=O)CNC(=O)[C@H](CC(=O)OC(C)(C)C)NC(=O)CN |  | ring closure, overall yield ([1]; 31-membered ring): 0.3%
3 |  |  | CCCCCCCCCC(=O)NC[C@@H](C)C(=O)NCC(=O)N[C@H](CCC(=O)OC(C)(C)C)C(=O)N[C@@H](Cc1ccc(OC(C)(C)C)cc1)C(=O)N[C@H](C(=O)N[C@@H](C(=O)N[C@@H](CC(=O)OC(C)(C)C)C(=O)N[C@@H](CC(=O)OC(C)(C)C)C(=O)N1CCC[C@H]1C(=O)O)[C@H](C)CC)[C@@H](C)OC(=O)CN(C)C(=O)[C@H](CC(=O)OC(C)(C)C)NC(=O)[C@@H](CC(=O)OC(C)(C)C)NC(=O)CN | 0.3 | 
4 |  |  | CCCCCCCCCC(=O)NC[C@@H](C)C(=O)NCC(=O)N[C@H](CCC(=O)OC(C)(C)C)C(=O)N[C@@H](Cc1ccc(OC(C)(C)C)cc1)C(=O)N[C@H](C(=O)N[C@@H](C(=O)N[C@@H](CC(=O)OC(C)(C)C)C(=O)N[C@@H](CC(=O)OC(C)(C)C)C(=O)N1CCC[C@H]1C(=O)O)[C@H](C)CC)[C@@H](C)OC(=O)CN(C)C(=O)[C@H](CC(=O)OC(C)(C)C)NC(=O)[C@H](CC(=O)OC(C)(C)C)NC(=O)CN | 0.4 | 
5 |  |  | CCCCCCCCCC(=O)NC[C@@H](C)C(=O)NCC(=O)N[C@H](CCC(=O)OC(C)(C)C)C(=O)N[C@@H](Cc1ccc(OC(C)(C)C)cc1)C(=O)N[C@H](C(=O)N[C@@H](C(=O)N[C@@H](CC(=O)OC(C)(C)C)C(=O)N[C@@H](CC(=O)OC(C)(C)C)C(=O)N1CCC[C@H]1C(=O)O)[C@H](C)CC)[C@@H](C)OC(=O)CN(C)C(=O)[C@H](CCC(=O)OC(C)(C)C)NC(=O)[C@H](CCC(=O)OC(C)(C)C)NC(=O)CN | 1 | 
6 |  |  | CCCCCCCCCC(=O)NC[C@@H](C)C(=O)NCC(=O)N[C@H](CCC(=O)OC(C)(C)C)C(=O)N[C@@H](Cc1ccc(OC(C)(C)C)cc1)C(=O)N[C@H](C(=O)N[C@@H](C(=O)N[C@@H](CC(=O)OC(C)(C)C)C(=O)N[C@@H](CC(=O)OC(C)(C)C)C(=O)N1CCC[C@H]1C(=O)O)[C@H](C)CC)[C@@H](C)OC(=O)CN(C)C(=O)[C@H](CCC(=O)OC(C)(C)C)NC(=O)CNC(=O)[C@@H](CCC(=O)OC(C)(C)C)NC(=O)CN |  | ring closure, overall yield ([1]; 31-membered ring): 0.3%
7 |  |  | CCCCCCCCCC(=O)NC[C@@H](C)C(=O)NCC(=O)N[C@H](CCC(=O)OC(C)(C)C)C(=O)N[C@@H](Cc1ccc(OC(C)(C)C)cc1)C(=O)N[C@H](C(=O)N[C@@H](C(=O)N[C@@H](CC(=O)OC(C)(C)C)C(=O)N[C@@H](CC(=O)OC(C)(C)C)C(=O)N1CCC[C@H]1C(=O)O)[C@H](C)CC)[C@@H](C)OC(=O)CN(C)C(=O)[C@H](CC(=O)OC(C)(C)C)NC(=O)[C@H](CCC(=O)OC(C)(C)C)NC(=O)CN | 0.2 | 
8 |  |  | CCCCCCCCCC(=O)NC[C@@H](C)C(=O)NCC(=O)N[C@H](CCC(=O)OC(C)(C)C)C(=O)N[C@@H](Cc1ccc(OC(C)(C)C)cc1)C(=O)N[C@H](C(=O)N[C@@H](C(=O)N[C@@H](CC(=O)OC(C)(C)C)C(=O)N[C@@H](CC(=O)OC(C)(C)C)C(=O)N1CCC[C@H]1C(=O)O)[C@H](C)CC)[C@@H](C)OC(=O)CN(C)C(=O)[C@H](CCC(=O)OC(C)(C)C)NC(=O)[C@@H](CC(=O)OC(C)(C)C)NC(=O)CN | 0.3 | 
9 |  |  | CCCCCCCCCC(=O)NC[C@@H](C)C(=O)NCC(=O)N[C@H](CCC(=O)OC(C)(C)C)C(=O)N[C@@H](Cc1ccc(OC(C)(C)C)cc1)C(=O)N[C@H](C(=O)N[C@@H](C(=O)N[C@@H](CC(=O)OC(C)(C)C)C(=O)N[C@@H](CC(=O)OC(C)(C)C)C(=O)N1CCC[C@H]1C(=O)O)[C@H](C)CC)[C@@H](C)OC(=O)CN(C)C(=O)[C@H](CCC(=O)OC(C)(C)C)NC(=O)[C@@H](CCC(=O)OC(C)(C)C)NC(=O)CN | 0.5 | 
10 | - | ~ | CCCCCCCCCC(=O)NC[C@@H](C)C(=O)NCC(=O)N[C@H](CCC(=O)O)C(=O)N[C@@H](Cc1ccc(O)cc1)C(=O)N[C@@H]1C(=O)N[C@H]([C@H](C)CC)C(=O)N[C@@H](CC(=O)O)C(=O)N[C@@H](CC(=O)O)C(=O)N2CCC[C@H]2C(=O)NCC(=O)N[C@H](CC(=O)O)C(=O)N[C@@H](CC(=O)O)C(=O)N(C)CC(=O)O[C@@H]1C [Peptide C3] (Decanoyl-[β2hAla(R)]G[dE]YT[dI]DDPG[dD]D[Sar]; ester 5-C) |  | MIC + Ca^2+ ([2]; 168, 24 h): 128 µg/mL; MIC − Ca^2+ ([2]; 168, 24 h): 128 µg/mL (≈ 86 µM); C55-P spot on TLC after incubation with peptide (in words) [4]: no spots for C55-P; also recorded: no longer visible
11 | - | - | CCCCCCCCCC(=O)N[C@@H](CC(=O)O)C(=O)N[C@H]1CNC(=O)[C@@H]2CCCN2C(=O)[C@H](C(C)C)NC(=O)[C@H](CC(=O)O)NC(=O)CNC(=O)[C@H](CC(=O)O)NC(=O)CNC(=O)[C@H](CC(=O)O)NC(=O)[C@H](CCCCN)NC(=O)[C@@H](C(C)C)NC1=O [Peptide M3] (Decanoyl-D[Dap][dV]KDGDGDVP; lactam 2-C) |  | MIC + Ca^2+ ([2]; 168, 24 h): 128 µg/mL; MIC − Ca^2+ ([2]; 168, 24 h): 128 µg/mL (≈ 103 µM); binding to lipid II in TLC assay (in words) ([3]; lipid II spot on TLC after incubation, PMA staining in Figure S6): lack of binding
12 | - | - | CCCCCCCCCC(=O)NC[C@@H](C)C(=O)NCC(=O)N[C@H](CCC(=O)O)C(=O)N[C@@H](Cc1ccc(O)cc1)C(=O)N[C@@H]1C(=O)N[C@H]([C@H](C)CC)C(=O)N[C@@H](CC(=O)O)C(=O)N[C@@H](CC(=O)O)C(=O)N2CCC[C@H]2C(=O)NCC(=O)N[C@H](CCC(=O)O)C(=O)NCC(=O)N[C@@H](CCC(=O)O)C(=O)N(C)CC(=O)O[C@@H]1C [Peptide C9] (Decanoyl-[β2hAla(R)]G[dE]YT[dI]DDPG[dE]GE[Sar]; ester 5-C) |  | MIC + Ca^2+ ([2]; 168, 24 h): 128 µg/mL; MIC − Ca^2+ ([2]; 168, 24 h): 128 µg/mL (≈ 81.3 µM); C55-P spot on TLC after incubation with peptide (in words) [4]: a lack of binding
13 | - | - | CCCCCCCCCC(=O)N[C@@H](Cc1c[nH]c2ccccc12)C(=O)N[C@H](CC(N)=O)C(=O)N[C@@H](CC(=O)O)C(=O)N[C@@H]1C(=O)NCC(=O)N[C@@H](CCCN)C(=O)N[C@@H](CC(=O)O)C(=O)N[C@H](C)C(=O)N[C@@H](CC(=O)O)C(=O)NCC(=O)N[C@H](CO)C(=O)N[C@@H]([C@H](C)CC(=O)O)C(=O)N[C@@H](CC(=O)c2ccccc2N)C(=O)O[C@@H]1C [Daptomycin, reference compound] |  | MIC − Ca^2+ ([2]; B. subtilis 168, MHB II with 0 mM CaCl2, 5 × 10^5 CFU/mL, 37 °C, 24 h, two-fold dilution series, triplicate): 16 µg/mL (≈ 9.87 µM); decrease in activity in the absence of calcium ([2]; B. subtilis 168, MIC without Ca versus with 15 or 100 mM Ca): 16- to 32 fold; C55-P spot on TLC after incubation with peptide (in words) [4]: a lack of binding
14 | - | - | CCCCCCCCCC(=O)NC[C@@H](C)C(=O)NCC(=O)N[C@H](CCC(=O)O)C(=O)N[C@@H](Cc1ccc(O)cc1)C(=O)N[C@@H]1C(=O)N[C@H]([C@H](C)CC)C(=O)N[C@@H](CC(=O)O)C(=O)N[C@@H](CC(=O)O)C(=O)N2CCC[C@H]2C(=O)NCC(=O)N[C@H](CCC(=O)O)C(=O)N[C@@H](CCC(=O)O)C(=O)N(C)CC(=O)O[C@@H]1C [Peptide C1a] (Decanoyl-[β2hAla(R)]G[dE]YT[dI]DDPG[dE]E[Sar]; ester 5-C) |  | MIC + Ca^2+ ([2]; 168, 24 h): 128 µg/mL; MIC − Ca^2+ ([2]; 168, 24 h): 128 µg/mL (≈ 84.4 µM)
